“And” between values parts separate entries of the source, which are not always exact repeats. Identical values can stand only once.
Test system: histone modifications in MCF-7 cells
Assay: Histone modification analysis by bottom-up LC-MS/MS
Format: cell-based
Details: Replicates 1-3
Source text: In this approach. […] Histones are then extracted from cell pellets and chemically derivatized with propionic anhydride, digested with trypsin, subjected to a second round of propionylation, and analyzed by LC-MS/MS. Measuring the relative intensity of modified versus unmodified forms of individual histone peptides enables simultaneous monitoring of multiple potential biomarkers of MYST inhibition. To minimize false positives, we focused on abundant and reproducible modifications (average stoichiometry of greater than 1% across triplicate samples, standard deviation less than or equal to the average measurement). To account for potential histone modification crosstalk, changes in both acetylated and methylated peptides were evaluated. 38 modified peptides passed this reproducible detection threshold including several established KAT biomarkers[41] including H3K9Ac (KAT2A/B), H3K18Ac (KAT3A/B), H3K14Ac (KAT7), H3K23Ac (KAT6A/B), H4K16Ac (KAT8), and H2A.ZK4/K7Ac (KAT5; Fig. 4B).
Histone modification analysis
MCF-7 cells were cultured at 37 °C under 5% CO2 in EMEM (Quality Biological, 112-016-101) with 0.01 mg/mL human recombinant insulin (Sigma Aldrich, 91077C), 2 mM L-glutamine (Quality Biological, 118- […]
human recombinant insulin.
1119, WM-3835). Following 24 h inhibitor treatment, cells were washed with ice-cold 1× PBS and scraped in 150 µL of Nuclear Isolation Buffer (NIB) containing 0.1% NP-40 for histone extraction using a modified protocol from the Garcia laboratory. 9 Briefly, cell suspensions were incubated on ice for 5 minutes, and […]
nuclei were pelleted by centrifugation (600 rcf, 4°C, 5 min). Pelleted nuclei were washed twice with 150 μL of detergent-free NIB buffer, followed by centrifugation (600 rcf, 4°C, 5 min) to remove all detergent.
Nuclei were then resuspended in 400 μL of 0.4 N H₂SO₄ and rotated at 4°C overnight for acid extraction of histones. The following day, samples were centrifuged (11,000 rcf, 4°C, 10 min) and the histone-containing supernatant was transferred to a fresh tube. Trichloroacetic acid (100% TCA) was added to achieve a final concentration of 20% (v/v), tubes were inverted once to mix, and histone precipitation was performed on ice for at least 3 hours or overnight at 4°C. Precipitated histones were collected by centrifugation (11,000 rcf, 4°C, 10 min) and the supernatant carefully removed, leaving a visible film of histones on the tube wall or bottom. Histone pellets were subjected to sequential washes with 1 mL of ice-cold acidified acetone (0.1% 12 N HCl) followed by 1 mL of 100% ice-cold acetone, with centrifugation (11,000 rcf, 4°C, 5 min) after each wash. Samples were air-dried at room temperature, resuspended in 40 µL of ddH₂O, and protein […]
analysis, 1-2 µg of purified histones were loaded per lane and processed according to the general immunoblotting protocol described in General Materials and Methods.
Analysis of histone modifications by LC-MS/MS
Preparation of histone samples for LC-MS/MS was performed analogously to the procedure for immunoblotting above, with the following modifications. MCF7 cells (4.2 × 106) were seeded in 15 cm dishes and treated with PF-9363 or vehicle. Experiments were performed in triplicate. Following treatment and PBS washing, cells were scraped and collected in 15 mL falcon tubes, pelleted (500 rcf, 4°C, 5 min), resuspended in 1 mL cold PBS, transferred to microcentrifuge tubes, and pelleted again before flash-freezing in liquid nitrogen for storage at -80°C. For extraction, cell pellets (~100 μL) were resuspended in NIB buffer at a 1:10 ratio, and cells were lysed with NIB buffer containing 0.2% NP-40 for 8 minutes on ice. Nuclei were pelleted at 1,000 rcf for 8 minutes and washed three times with 500 μL detergent-free NIB buffer. Histones were extracted using 800 μL of 0.2 M H₂SO₄, and after centrifugation (3,400 rcf, 4°C, 10

COc1cccc(OC)c1S(=O)(=O)Nc1noc2cc(Cn3cccn3)cc(OC)c12 [PF-9363]
Ratio, H2A1_4_11 unmod (PF-9363 1): 0.8988 and 0.8885 and 0.9043 | Ratio, H2A1_36_42 unmod (PF-9363 1): 0.9987 (2×) and 0.999 | Ratio, H2A3_36_42 unmod (PF-9363 1): 1 | Ratio, H2AJ_4_11 K5acK9ac (PF-9363 1): 0.8841 and 0.8218 and 0.8897 | Ratio, H2AV_1_19 K4ac (PF-9363 1): 0.04613 and 0.03379 and 0.05235 | Ratio, H2AV_1_19 unmod (PF-9363 1): 0.7904 and 0.9003 and 0.7876 | Ratio, H2AX_4_11 unmod (PF-9363 1): 0.3103 and 0.2578 and 0.2996 | Ratio, H2AX_36_42 unmod (PF-9363 1): 1 | Ratio, H2AZ_1_19 K11ac (PF-9363 1): 0.007104 and 0.02367 and 0.02119 | Ratio, H2AZ_1_19 unmod (PF-9363 1): 0.8748 and 0.8677 and 0.8766 | Ratio, H3_73_83 K79me1 (PF-9363 1): 0.08571 and 0.09293 and 0.08865 | Ratio, H3_73_83 K79me2 (PF-9363 1): 0.07582 and 0.06553 and 0.05074 | Ratio, H3_73_83 unmod (PF-9363 1): 0.8373 and 0.84 and 0.8592 | Ratio, H4_4_17 K12acK16ac (PF-9363 1): 0.009843 and 0.01149 and 0.01038 | Ratio, H4_4_17 unmod (PF-9363 1): 0.6943 and 0.6691 and 0.6837 | Ratio, H4_20_23 K20me1 (PF-9363 1): 0.04112 and 0.02779 and 0.03237 | Ratio, H4_20_23 unmod (PF-9363 1): 0.02967 and 0.03053 and 0.03337 | Ratio, H2A1_1_11 K5ac (PF-9363 10): 0.7349 and 0.6528 and 0.8541 | Ratio, H2A1_4_11 K5ac (PF-9363 10): 0.05941 and 0.05561 and 0.05439 | Ratio, H2A1_4_11 K9ac (PF-9363 10): 0.0376 and 0.02679 and 0.04578 | Ratio, H2A1_4_11 unmod (PF-9363 10): 0.8844 and 0.9105 and 0.8938 | Ratio, H2A1_36_42 unmod (PF-9363 10): 0.9994 and 0.9989 and 0.9987 | Ratio, H2A3_36_42 unmod (PF-9363 10): 1 | Ratio, H2AJ_4_11 K5acK9ac (PF-9363 10): 0.87 and 0.9304 and 0.8571 | Ratio, H2AV_1_19 K4ac (PF-9363 10): 0.03545 and 0 and 0.04516 | Ratio, H2AV_1_19 unmod (PF-9363 10): 0.7519 and 0 and 0.8693 | Ratio, H2AX_4_11 unmod (PF-9363 10): 0.3078 and 0.3089 and 0.315 | Ratio, H2AX_36_42 unmod (PF-9363 10): 0.9999 and 1 (2×) | Ratio, H2AZ_1_19 K11ac (PF-9363 10): 0.002627 and 0 and 0.03573 | Ratio, H2AZ_1_19 unmod (PF-9363 10): 0.8481 and 0 and 0.8795 | Ratio, H3_73_83 K79me1 (PF-9363 10): 0.0968 and 0.09055 and 0.1061 | Ratio, H3_73_83 K79me2 (PF-9363 10): 0.04989 and 0 and 0.05862 | Ratio, H3_73_83 unmod (PF-9363 10): 0.8517 and 0.9094 and 0.8343 | Ratio, H4_4_17 K12acK16ac (PF-9363 10): 0.004929 and 0.3101 and 0.006064 | Ratio, H4_4_17 unmod (PF-9363 10): 0.8097 and 0 and 0.7957 | Ratio, H4_20_23 K20me1 (PF-9363 10): 0.03215 and 0 and 0.02863 | Ratio, H4_20_23 unmod (PF-9363 10): 0.01905 and 0.02691 and 0.02102 | Ratio, H2A1_1_11 K5ac (PF-9363 30): 0.8425 and 0.9367 and 0.7907 | Ratio, H2A1_4_11 K5ac (PF-9363 30): 0.04965 and 0.0448 and 0.04948 | Ratio, H2A1_4_11 K9ac (PF-9363 30): 0.02646 and 0.04262 and 0.03503 | Ratio, H2A1_4_11 unmod (PF-9363 30): 0.9191 and 0.9063 and 0.9088 | Ratio, H2A1_36_42 unmod (PF-9363 30): 0.9989 and 0.9987 and 0.9988 | Ratio, H2A3_36_42 unmod (PF-9363 30): 1 | Ratio, H2AJ_4_11 K5acK9ac (PF-9363 30): 0.9299 and 0.8746 and 0.8721 | Ratio, H2AV_1_19 K4ac (PF-9363 30): 0.04726 and 0.04134 and 0.0354 | Ratio, H2AV_1_19 unmod (PF-9363 30): 0.8732 and 0.735 and 0.7339 | Ratio, H2AX_4_11 unmod (PF-9363 30): 0.3537 and 0.3214 and 0.3151 | Ratio, H2AX_36_42 unmod (PF-9363 30): 1 | Ratio, H2AZ_1_19 K11ac (PF-9363 30): 0 and 0.03845 and 0.003881 | Ratio, H2AZ_1_19 unmod (PF-9363 30): 1 and 0.8991 and 0.9454 | Ratio, H3_73_83 K79me1 (PF-9363 30): 0.07412 and 0.08491 and 0.08741 | Ratio, H3_73_83 K79me2 (PF-9363 30): 0.05912 and 0.06141 and 0.04678 | Ratio, H3_73_83 unmod (PF-9363 30): 0.865 and 0.8523 and 0.8643 | Ratio, H4_4_17 K12acK16ac (PF-9363 30): 0.3308 and 0.002262 and 0.2125 | Ratio, H4_4_17 unmod (PF-9363 30): 0.05921 and 0.8851 and 0.358 | Ratio, H4_20_23 K20me1 (PF-9363 30): 0 and 0.03437 and 0.03685 | Ratio, H4_20_23 unmod (PF-9363 30): 0.02728 and 0.02218 and 0.01429

Source: article doi:10.1101/2025.04.25.650653, “Hierarchical small molecule inhibition of MYST acetyltransferases” (bioRxiv, 2025)
